# Patent US8445636B2, “Antimicrobial and anticancer lipopeptides” (Yeda Research & Development Co. Ltd., priority 2003, dated 2013)
# Non-standard residues stand in square brackets, D forms with d. Residues, ends and D or L forms follow the SMILES beside them. *: point of attachment. Palmitoyl = CCCCCCCCCCCCCCCC(=O)*; Myristoyl = CCCCCCCCCCCCCC(=O)*; Undecanoyl = CCCCCCCCCCC(=O)*; Lauroyl = CCCCCCCCCCCC(=O)*
# Experiments:
# Format in all cases: cell-based
# [1] = tested on: Cryptococcus neoformans ATCC MYA-422; assay: microbe, parasite or virus in culture; details: Table 17, D-magainin analog; mean of 3 experiments, standard deviation of 25%; read-out: Minimal Inhibitory Concentration, Cyrptococcus neoformans (ATCC MYA-422)
# [2] = tested on: Pseudomonas aeruginosa ATCC 27853; details: for Minimal Inhibitory Concentration, P. Aeruginosa: ATCC 27853, pH 7.4
# Experimental: (§1) The antibacterial activity of the lipopeptides was examined in sterile 96-well plates (Nunc F96 microtiter plates) in a final volume of 100 μl as follows: Aliquots (50 μl) of a suspension containing bacteria at concentration of 1×10^6 Colony-Forming Units (CFU)/ml in culture LB (Lauria broth) medium (pH 7.4 or pH 5.5) were added to 50 μl of water containing the lipopeptide in serial 2-fold dilutions in water. Adjustment of the pH was done by diluted solutions of HCl and NaOH Inhibition of growth was determined by measuring the absorbance at 600 nm with a Microplate autoreader E1309 (Bio-Tek Instruments), after an incubation time of 18-20 h at 37° C. Antibacterial activities were expressed as the minimal inhibitory concentration (MIC), the concentration at which 100% inhibition of growth was observed after 18-20 h of incubation. The bacteria used were: Escherichia coli ATCC 25922, Acinetobacter baumannii ATCC 19606, Pseudomonas aeruginosa ATCC 27853, Staphylococcus aureus ATCC 6538P, Enterococcus faecalis ATCC 29212, Enterobacter cloacae ATCC 49141. The antibacterial activity of lipopeptides was also examined against resistant bacteria: methicilin-resistant Staphylococcus aureus (MRSA) ATCC 700698 and vancomycin-resistant Enterococcus faecium (VRE) ATCC 700221. If not indicated otherwise, the bacterial growth was detected at pH 7.4.
# [3] = tested on: Staphylococcus aureus ATCC 6538P; details: for Minimal Inhibitory Concentration, S. aureus: ATCC 6538, pH 7.4
# Experimental: as §1
# [4] = tested on: Escherichia coli ATCC 25922; details: for Minimal Inhibitory Concentration, E. coli: ATCC 25922, pH 7.4
# Experimental: as §1
# [5] = tested on: Candida albicans ATCC 10231; assay: microbe, parasite or virus in culture; details: for MIC: ATCC 10231, read-out: Minimal Inhibitory Concentration, Candida Albicans (ATCC 10231); for Minimal Inhibitory Concentration, C. albicans ATCC 10231: ATCC 10231, pH 7.4
# Experimental: (§2) The antifungal activity of the lipopeptides was examined in sterile 96-well plates (Nunc F96 microtiter plates) in a final volume of 200 μL as follows: 100 µl of a suspension containing fungi at a concentration of 1×10^4 Colony-Forming Units (CFU)/ml in culture medium (RPMI 1640, 0.165 M MOPS with L-glutamine, without NaHCO3) at pH 7.4 or pH 5.5 (adjustment of the pH was done by diluted solutions of HCl and NaOH) were added to 100 μl of water containing the peptide in serial 2-fold dilutions in water. The fungi were incubated in the presence of the lipopeptides for 24-48 h at 35° C. in a Binder KB115 incubator under agitation. Growth inhibition was determined by measuring the absorbance at 620 nm with a Microplate autoreader E1309 (Bio-Tek Instruments). Antifungal activity is expressed as the minimal inhibitory concentration (MIC), the concentration at which 100% inhibition of fungi growth was observed after the incubation time mentioned above. The fungi used were: Aspergillus niger ATCC 9642, Candida albicans ATCC 10231 and Cryptococcus neoformans ATCC 66031. If not indicated otherwise, the fungi growth was detected at pH 7.4.
# [6] = tested on: Aspergillus fumigatus ATCC 26430; assay: microbe, parasite or virus in culture; details: for Minimal Inhibitory Concentration, A. fumigatus ATCC 26430: ATCC 26430, pH 7.4
# B. subtilis ATCC 6051 = details: ATCC 6051
# [7] = tested on: human red blood cells (hRBC); assay: Hemolytic activity, release of hemoglobin at 540 nm
# Experimental: Fresh human red blood cells (hRBC) with EDTA were rinsed 3 times with PBS (35 mM phosphate buffer/0.15 M NaCl, pH 7.3) by centrifugation for 10 min at 800 g and resuspended in PBS. Peptides dissolved in PBS were then added to 50 μl of a solution of the stock hRBC in PBS to reach a final volume of 100 μl (final erythrocyte concentration, 4% v/v). The resulting suspension was incubated under agitation for 60 min at 37° C. The samples were then centrifuged at 800×g for 10 min. Release of hemoglobin was monitored by measuring the absorbance of the supernatant at 540 nm. Controls for zero hemolysis (blank) and 100% hemolysis consisted of hRBC suspended in PBS and Triton 1%, respectively.
# [8] = tested on: methicilin-resistant Staphylococcus aureus (MRSA) ATCC 700698; details: for Minimal Inhibitory Concentration, S. aureus (MRSA): ATCC 700698, pH 7.4
# Experimental: as §1
# [9] = tested on: Enterococcus faecalis ATCC 29212; details: ATCC 29212, pH 7.4
# Experimental: as §1
# [10] = tested on: Enterobacter cloacae ATCC 49141; details: ATCC 49141, pH 7.4
# Experimental: as §1
# [11] = tested on: Cryptococcus neoformans ATCC 66031; assay: microbe, parasite or virus in culture; details: ATCC 66031, pH 7.4
# Experimental: as §2
# [12] = tested on: Acinetobacter baumannii ATCC 19606; details: ATCC 19606, pH 7.4
# Experimental: as §1
smiles,measurement,setting,value
"CC[C@H](C)[C@H](NC(=O)CN)C(=O)NCC(=O)N[C@@H](CCCCN)C(=O)N[C@@H](Cc1ccccc1)C(=O)N[C@H](CC(C)C)C(=O)N[C@@H](Cc1c[nH]cn1)C(=O)N[C@@H](CO)C(=O)N[C@@H](C)C(=O)N[C@H](CCCCN)C(=O)N[C@@H](CCCCN)C(=O)N[C@@H](Cc1c[nH]c2ccccc12)C(=O)NCC(=O)N[C@@H](CCCCN)C(=O)N[C@@H](C)C(=O)N[C@H](Cc1ccccc1)C(=O)N[C@H](C(=O)NCC(=O)N[C@H](CCC(=O)O)C(=O)N[C@H](C(=O)N[C@@H](CCSC)C(=O)N[C@@H](CC(N)=O)C(=O)N[C@@H](CO)C(N)=O)[C@@H](C)CC)C(C)C [[D]4magainin, Gly-Ile-Gly-Lys-Phe-D-Leu-His-Ser-Ala-D-Lys-Lys-Trp-Gly-Lys-Ala-D-Phe-Val-Gly-D-Glu-Ile-Met-Asn-Ser-NH2, reference compound] (H-GIGKF[dL]HSA[dK]KWGKA[dF]VG[dE]IMNS-NH2; N-terminus assumed)",MIC,[1],>50 µM
same,"Minimal Inhibitory Concentration, P. aeruginosa ATCC 27853",[2],>50 µM
same,"Minimal Inhibitory Concentration, S. aureus ATCC 6538P",[3],>50 µM
same,"Minimal Inhibitory Concentration, E. coli (ATCC 25922)",[4],>50 µM
same,MIC,[5],>50 µM
same,"Minimal Inhibitory Concentration, Aspergillus fumigatus (ATCC 26430)",[6],>50 µM
same,"Minimal Inhibitory Concentration, B. subtilis (ATCC 6051)",B. subtilis ATCC 6051,50 µM
CCCCCCCCCCCCCCCC(=O)NCC(=O)N[C@H](C(=O)NCC(=O)N[C@@H](CCCCN)C(=O)N[C@@H](Cc1ccccc1)C(=O)N[C@H](CC(C)C)C(=O)N[C@@H](Cc1c[nH]cn1)C(=O)N[C@@H](CO)C(=O)N[C@@H](C)C(=O)N[C@H](CCCCN)C(=O)N[C@@H](CCCCN)C(=O)N[C@@H](Cc1c[nH]c2ccccc12)C(=O)NCC(=O)N[C@@H](CCCCN)C(=O)N[C@@H](C)C(=O)N[C@H](Cc1ccccc1)C(=O)N[C@H](C(=O)NCC(=O)N[C@H](CCC(=O)O)C(=O)N[C@H](C(=O)N[C@@H](CCSC)C(=O)N[C@@H](CC(N)=O)C(=O)N[C@@H](CO)C(N)=O)[C@@H](C)CC)C(C)C)[C@@H](C)CC [[D]4magainin-PA] (Palmitoyl-GIGKF[dL]HSA[dK]KWGKA[dF]VG[dE]IMNS-NH2),MIC,[1],6.25 µM
same,% of Hemolytic activity at maximal MIC,[7]; human,8%
same,"Minimal Inhibitory Concentration, P. aeruginosa ATCC 27853",[2],>50 µM
same,"Minimal Inhibitory Concentration, S. aureus ATCC 6538P",[3],>50 µM
same,"Minimal Inhibitory Concentration, E. coli (ATCC 25922)",[4],>50 µM
same,MIC,[5],>50 µM
same,"Minimal Inhibitory Concentration, Aspergillus fumigatus (ATCC 26430)",[6],>50 µM
same,"Minimal Inhibitory Concentration, B. subtilis (ATCC 6051)",B. subtilis ATCC 6051,50 µM
"CCCCCCCCCCCCCC(=O)N[C@H](CCCCN)C(=O)NCC(=O)NCC(=O)NCC(=O)N[C@H](CCCCN)C(=O)NCC(=O)NCC(=O)NCC(=O)N[C@H](CCCCN)C(=O)NCC(=O)NCC(=O)N[C@H](CCCCN)C(N)=O [lipopeptide 1, (CH3—(CH2)12—CO—)-D-Lys-Gly-Gly-Gly-D-Lys-Gly-Gly-Gly-D-Lys-Gly-Gly-D-Lys-NH2] (Myristoyl-[dK]GGG[dK]GGG[dK]GG[dK]-NH2)","Minimal Inhibitory Concentration, P. Aeruginosa",[2],6.25 µM
same,"Minimal Inhibitory Concentration, S. aureus (MRSA)",[8],6.25 µM
same,"Minimal Inhibitory Concentration, E. faecalis",[9],3.125 µM
same,"Minimal Inhibitory Concentration, S. aureus",[3],6.25 µM
same,"Minimal Inhibitory Concentration, E. cloacae",[10],3.125 µM
same,"Minimal Inhibitory Concentration, E. coli",[4],12.5 µM
same,"Minimal Inhibitory Concentration, C. neoformans ATCC 66031",[11],6.25 µM
same,"Minimal Inhibitory Concentration, C. albicans ATCC 10231",[5],3.125 µM
same,"Minimal Inhibitory Concentration, A. fumigatus ATCC 26430",[6],6.25 µM
"CCCCCCCCCCCCCCCC(=O)N[C@@H](CCCCN)C(=O)NCC(=O)NCC(=O)NCC(=O)N[C@@H](CCCCN)C(=O)NCC(=O)NCC(=O)NCC(=O)N[C@@H](CCCCN)C(=O)NCC(=O)NCC(=O)N[C@@H](CCCCN)C(N)=O [lipopeptide 4, (CH3—(CH2)14—CO—)-Lys-Gly-Gly-Gly-Lys-Gly-Gly-Gly-Lys-Gly-Gly-Lys-NH2] (Palmitoyl-KGGGKGGGKGGK-NH2)","Minimal Inhibitory Concentration, P. Aeruginosa",[2],6.25 µM
same,"Minimal Inhibitory Concentration, S. aureus (MRSA)",[8],12.5 µM
same,"Minimal Inhibitory Concentration, E. faecalis",[9],12.5 µM
same,"Minimal Inhibitory Concentration, S. aureus",[3],12.5 µM
same,"Minimal Inhibitory Concentration, E. cloacae",[10],50 µM
same,"Minimal Inhibitory Concentration, A. Baumaannii",[12],25 µM
same,"Minimal Inhibitory Concentration, E. coli",[4],25 µM
same,"Minimal Inhibitory Concentration, C. neoformans ATCC 66031",[11],1.56 µM
same,"Minimal Inhibitory Concentration, C. albicans ATCC 10231",[5],3.125 µM
same,"Minimal Inhibitory Concentration, A. fumigatus ATCC 26430",[6],6.25 µM
"CCCCCCCCCCC(=O)N[C@@H](CCCCN)C(=O)N[C@@H](CC(C)C)C(=O)N[C@H](CC(C)C)C(=O)N[C@H](CC(C)C)C(=O)N[C@@H](CCCCN)C(=O)N[C@@H](CC(C)C)C(=O)N[C@@H](CC(C)C)C(=O)N[C@H](CC(C)C)C(=O)N[C@@H](CCCCN)C(=O)N[C@H](CC(C)C)C(=O)N[C@@H](CC(C)C)C(=O)N[C@@H](CCCCN)C(N)=O [lipopeptide 10, (CH3—(CH2)9—CO—)-Lys-Leu-D-Leu-D-Leu-Lys-Leu-Leu-D-Leu-Lys-D-Leu-Leu-Lys-NH2] (Undecanoyl-KL[dL][dL]KLL[dL]K[dL]LK-NH2)","Minimal Inhibitory Concentration, P. Aeruginosa",[2],3.25 µM
same,"Minimal Inhibitory Concentration, S. aureus (MRSA)",[8],3.125 µM
same,activity against MRSA,"[8]; in words, summary of Table 4",highly active
same,"Minimal Inhibitory Concentration, E. faecalis",[9],3.125 µM
same,"Minimal Inhibitory Concentration, S. aureus",[3],3.125 µM
same,"Minimal Inhibitory Concentration, E. cloacae",[10],1.56 µM
same,"Minimal Inhibitory Concentration, A. Baumaannii",[12],3.125 µM
same,"Minimal Inhibitory Concentration, E. coli",[4],6.25 µM
same,"Minimal Inhibitory Concentration, C. neoformans ATCC 66031",[11],1.56 µM
same,"Minimal Inhibitory Concentration, C. albicans ATCC 10231",[5],3.125 µM
same,"Minimal Inhibitory Concentration, A. fumigatus ATCC 26430",[6],6.25 µM
"CCCCCCCCCCCC(=O)N[C@H](CC(C)C)C(=O)N[C@@H](Cc1cnc[nH]1)C(=O)N[C@@H](Cc1cnc[nH]1)C(=O)N[C@H](CC(C)C)C(=O)N[C@H](CC(C)C)C(=O)N[C@@H](Cc1cnc[nH]1)C(=O)N[C@@H](Cc1cnc[nH]1)C(=O)N[C@H](CC(C)C)C(=O)N[C@H](CC(C)C)C(=O)N[C@@H](Cc1cnc[nH]1)C(=O)N[C@@H](Cc1cnc[nH]1)C(=O)N[C@H](CC(C)C)C(N)=O [lipopeptide 26, (CH3-(CH2)10-CO-)-D-Leu-His-His-D-Leu-D-Leu-His-His-D-Leu-D-Leu-His-His-D-Leu-NH2] (Lauroyl-[dL]HH[dL][dL]HH[dL][dL]HH[dL]-NH2)",hemolytic activity,"[7]; up to a concentration of 25 μM, human red blood cells (FIGS. 6-7)",do not exert hemolytic activity
